How the values were obtained:
[1] = Hydrolysis in HCl solutions; type: physicochemical; conditions: 6-OAc-Oxy
[2] = Hydrolysis in simulated intestinal fluid at 37° C.; conditions: for 6-OAc-Oxy (%): 6-OAc-Oxy in simulated intestinal fluid; for 6-OAc-Oxy (%) / 6,14-bis-PEG-Oxy (%): 37° C.; for 6,14-bis-PEG-Oxy (%): 6,14-bis-PEG-Oxycodone (86%, 14% mono-PEG) in simulated Intestinal fluid (pH=6.8)
[3] = Hydrolysis in simulated gastric fluid at 37° C.; conditions: for 6-OAc-Oxy (%): 6-OAc-Oxy in simulated Gastric fluid; for 6,14-bis-PEG-Oxy (%): 6,14-bis-PEG-Oxycodone (86%, 14% mono-PEG) in simulated gastric fluid (pH=1.2)
[4] = Hydrolysis in human blood serum at 37° C.; conditions: for 6-OAc-Oxy (%): 6-OAc-Oxy in human blood serum; for 6-OAc-Oxy (%) / 6,14-bis-PEG-Oxy (%): 37° C.; for 6,14-bis-PEG-Oxy (%): 6,14-bis-PEG-Oxycodone (86%, 14% mono-PEG) in human serum
[5] = Hydrolysis in pH buffer/EtOH solutions; type: physicochemical; conditions: 6-OAc-Oxy
μ-opioid receptor [6] = molecular target: T1, μ-opioid receptor (Homo sapiens (Human), UniProt P35372); test: [35S]GTPγS μ-opioid receptor functional assay; type: biochemical; conditions: for % Response Agonist: Conc. 3 μM, criteria ≥± 50%
μ-opioid receptor [7] = molecular target: T1, μ-opioid receptor; type: binding
[8] = pH = 7 buffer (1:1 EtOH:H2O), 0 hrs
[9] = pH = 7 buffer (1:1 EtOH:H2O), 0.5 hrs
[10] = pH = 7 buffer (1:1 EtOH:H2O), 2 hrs
[11] = pH = 7 buffer (1:1 EtOH:H2O), 26 hrs
[12] = pH = 8 buffer (1:1 EtOH:H2O), 0 hrs
[13] = pH = 8 buffer (1:1 EtOH:H2O), 0.5 hrs
[14] = pH = 8 buffer (1:1 EtOH:H2O), 2 hrs
[15] = pH = 8 buffer (1:1 EtOH:H2O), 26 hrs
[16] = pH = 9 buffer (1:1 EtOH:H2O), 0 hrs
[17] = pH = 9 buffer (1:1 EtOH:H2O), 0.5 hrs
[18] = pH = 9 buffer (1:1 EtOH:H2O), 4 hrs
[19] = pH = 9 buffer (1:1 EtOH:H2O), 8 hrs
[20] = pH = 9 buffer (1:1 EtOH:H2O), 22 hrs
[21] = pH = 10 buffer (1:1 EtOH:H2O), 0 hrs
[22] = pH = 10 buffer (1:1 EtOH:H2O), 0.5 hrs
[23] = pH = 10 buffer (1:1 EtOH:H2O), 2 hrs
[24] = pH = 10 buffer (1:1 EtOH:H2O), 4 hrs
[25] = pH = 11 buffer (1:1 EtOH:H2O), 0 hrs
[26] = pH = 11 buffer (1:1 EtOH:H2O), 0.5 hrs

With `COc1ccc2c3c1OC1C(OC(C)=O)=CC[C@@]4(O)[C@@H](C2)N(C)CC[C@]314` (some centres unmarked) [6-acetyl oxycodone] the “6-OAc-Oxy (%)” value ([1]; 0.1N HCl solution, 0 hrs) was 89.4%, the “6-OAc-Oxy (%)” value ([1]; 0.1N HCl solution, 0.5 hrs) was 89.0% and the “Oxy (%)” value ([1]; 0.1N HCl solution, 0.5 hrs) was 6.43%. The “6-OAc-Oxy (%)” value ([1]; 0.1N HCl solution, 2 hrs) was 86.4%, the “Oxy (%)” value ([1]; 0.1N HCl solution, 2 hrs) was 7.8% and the “6-OAc-Oxy (%)” value ([1]; 0.1N HCl solution, 8 hrs) was 86.1%. The “Oxy (%)” value ([1]; 0.1N HCl solution, 8 hrs) was 9.5%, the “6-OAc-Oxy (%)” value ([1]; 0.1N HCl solution, 24 hrs) was 67.3% and the “Oxy (%)” value ([1]; 0.1N HCl solution, 24 hrs) was 30.1%. The “6-OAc-Oxy (%)” value ([1]; 1N HCl solution, 0 hrs) was 89.4%, the “6-OAc-Oxy (%)” value ([1]; 1N HCl solution, 0.5 hrs) was 81.5% and the “Oxy (%)” value ([1]; 1N HCl solution, 0.5 hrs) was 16.6%. The “6-OAc-Oxy (%)” value ([1]; 1N HCl solution, 2 hrs) was 61.0%, the “Oxy (%)” value ([1]; 1N HCl solution, 2 hrs) was 30.3% and the “6-OAc-Oxy (%)” value ([1]; 1N HCl solution, 4 hrs) was 42.0%. The “Oxy (%)” value ([1]; 1N HCl solution, 4 hrs) was 56.4%, the “6-OAc-Oxy (%)” value ([1]; 1N HCl solution, 8 hrs) was 18.2% and the “Oxy (%)” value ([1]; 1N HCl solution, 8 hrs) was 80.8%. For the same compound, the “6-OAc-Oxy (%)” value ([1]; 1N HCl solution, 24 hrs) was 1.7%, the “Oxy (%)” value ([1]; 1N HCl solution, 24 hrs) was 95.3% and the “6-OAc-Oxy (%)” value ([2]; 0 hrs) was 89.4%. The “6-OAc-Oxy (%)” value ([2]; 0.5 hrs) was 39.8%, the “6-OAc-Oxy (%)” value ([2]; 2 hrs) was 0.7% and the “6-OAc-Oxy (%)” value ([2]; 4 hrs) was 0.0%. For the same compound, the “time to hydrolyze releasing oxycodone” value ([2]; mixture in simulated intestinal fluid (37° C., pH 6.8, pancreatine)) was “less than 2 hours”, the “6-OAc-Oxy (%)” value ([3]; 0 hrs) was 89.4% and the “6-OAc-Oxy (%)” value ([3]; 2 hrs) was 68.4%. For the same compound, the “6-OAc-Oxy (%)” value ([3]; 4 hrs) was 66.1%, the “6-OAc-Oxy (%)” value ([3]; 8 hrs) was 58.1% and the “6-OAc-Oxy (%)” value ([3]; 24 hrs) was 46.2%. The “6-OAc-Oxy (%)” value ([4]; 0 hrs) was 89.4%, the “6-OAc-Oxy (%)” value ([4]; 0.083 hrs (5 min)) was 0.65% and the “6-OAc-Oxy (%)” value ([4]; 0.5 hrs) was 0.39%. The “hydrolysis in human blood serum (in words)” value ([4]; human blood serum (37° C.)) was “hydrolyzed quickly”, the “hydrolysis to oxycodone (in words)” value ([4]; human blood serum (37° C.), five minutes) was “mostly hydrolyzed to oxycodone” and the “6-OAc-Oxy (%)” value [5, 8] was 89.4%. The “Oxy (%)” value [5, 8] was 9.4%, the “6-OAc-Oxy (%)” value [5, 9] was 87.2% and the “Oxy (%)” value [5, 9] was 9.5%. For the same compound, the “6-OAc-Oxy (%)” value [5, 10] was 87.9%, the “Oxy (%)” value [5, 10] was 8.2% and the “6-OAc-Oxy (%)” value [5, 11] was 77.9%. For the same compound, the “Oxy (%)” value [5, 11] was 12.9%, the “6-OAc-Oxy (%)” value [5, 12] was 89.4% and the “Oxy (%)” value [5, 12] was 9.4%. The “6-OAc-Oxy (%)” value [5, 13] was 87.4%, the “Oxy (%)” value [5, 13] was 10.4% and the “6-OAc-Oxy (%)” value [5, 14] was 87.0%. The “Oxy (%)” value [5, 14] was 8.8%, the “6-OAc-Oxy (%)” value [5, 15] was 75.3% and the “Oxy (%)” value [5, 15] was 20.9%. For the same compound, the “6-OAc-Oxy (%)” value [5, 16] was 89.4%, the “Oxy (%)” value [5, 16] was 9.0% and the “6-OAc-Oxy (%)” value [5, 17] was 89.4%. The “Oxy (%)” value [5, 17] was 9.0%, the “6-OAc-Oxy (%)” value [5, 18] was 86.3% and the “Oxy (%)” value [5, 18] was 11.9%. For the same compound, the “6-OAc-Oxy (%)” value [5, 19] was 75.5%, the “Oxy (%)” value [5, 19] was 14.9% and the “6-OAc-Oxy (%)” value [5, 20] was 66.5%. The “Oxy (%)” value [5, 20] was 26.9%, the “6-OAc-Oxy (%)” value [5, 21] was 89.4% and the “Oxy (%)” value [5, 21] was 9.0%. The “6-OAc-Oxy (%)” value [5, 22] was 32.3%, the “Oxy (%)” value [5, 22] was 65.2% and the “6-OAc-Oxy (%)” value [5, 23] was 1.6%. For the same compound, the “Oxy (%)” value [5, 23] was 96.8%, the “6-OAc-Oxy (%)” value [5, 24] was 1.2% and the “Oxy (%)” value [5, 24] was 98.3%. For the same compound, the “6-OAc-Oxy (%)” value [5, 25] was 89.4%, the “Oxy (%)” value [5, 25] was 9.0% and the “6-OAc-Oxy (%)” value [5, 26] was 1.6%. The “Oxy (%)” value [5, 26] was 97.1%, the EC50 (μ-opioid receptor [6]) was 1690 nM and the “% Response Agonist” value (μ-opioid receptor [6]) was 62%. For the same compound, the Ki (μ-opioid receptor [7]) was 41 nM and the “Ki compared with that of oxycodone (in words)” value (μ-opioid receptor [7]) was “comparable”.

With `COCCOCCOCC(=O)OC1=CCC2(OC(=O)COCCOCCOC)[C@H]3Cc4ccc(OC)c5c4[C@@]2(CCN3C)C1O5` (some centres unmarked) [6,14-bis-PEG oxycodone] the “6,14-bis-PEG-Oxy (%)” value ([2]; 0 h) was 86%, the “6,14-bis-PEG-Oxy (%)” value ([2]; 0.17 h) was 0% and the “6,14-bis-PEG-Oxy (%)” value ([3]; 0 h) was 86%. For the same compound, the “6,14-bis-PEG-Oxy (%)” value ([3]; 1 h) was 77.7%, the “6,14-bis-PEG-Oxy (%)” value ([3]; 2 h) was 72.5% and the “6,14-bis-PEG-Oxy (%)” value ([3]; 4 h) was 65.6%. For the same compound, the “6,14-bis-PEG-Oxy (%)” value ([3]; 20 h) was 30.2%, the “6,14-bis-PEG-Oxy (%)” value ([4]; 0 h) was 86% and the “6,14-bis-PEG-Oxy (%)” value ([4]; 0.17 h) was 0.71%. For the same compound, the “6,14-bis-PEG-Oxy (%)” value ([4]; 1 h) was 0%, the EC50 (μ-opioid receptor [6]) was 520 nM and the “% Response Agonist” value (μ-opioid receptor [6]) was 85%. The “functional profile at μ-opioid receptor (in words)” value (μ-opioid receptor [6]; conclusion from Table 23) was “μ-receptor agonist as effective as oxycodone”, the Ki (μ-opioid receptor [7]) was 52 nM and the “Ki compared with that of oxycodone (in words)” value (μ-opioid receptor [7]) was “comparable”.

Source: patent publication US11845759B2, “Opioid compounds and uses thereof” (priority 2018, dated 2023)
